Source: patent US6767890B1, “Peptides having anti-cancer and anti-inflammatory activity” (priority 1998, dated 2004)
Several values for one entry are separate records, joined by “and”; a condition that tells them apart may be missing. Identical values can stand only once.

Assays:
[1] = tested on: PAF-induced mortality; assay: Platelet Activating Factor (PAF) Antagonism; format: in vivo, mouse; conditions: Peptide 100 mg/kg, WEB-2086 3 mg/kg
Description: (§1) For in vivo assay, distilled water and saline was used as vehicle in oral and intraperitoneal administration, respectively. Dosing volume was 20 ml/kg for mice or 10 ml/kg for rats.
Groups of 5 male ICR mice weighing 22±2 gms were employed. At dose of 100 mg/kg test substance dissolved in a vehicle of distilled water were administered orally. The control group received vehicle alone. At 60 minutes after dosing, the animals were injected intravenously PAF-acether ([…] IV, dissolved in 0.25% BSA). One hour later, the survival animals were recorded. The prevention of PAF-induced mortality in 50 percent or more (≧50%) of mice indicated significant activity.

[2] = target: Protein Kinase C, Non-Select.; assay: Protein Kinase C, Non-Select. enzyme assay; format: biochemical, rat; conditions: historical value; read-out: ^1IC, (IC50 of reference compound)
Description: (§2) The peptide was further screened in vitro in a variety of enzyme and biochemical assays. Methods employed were adapted from the scientific literature to maximize reliability and reproducibility. The primary literature reference for each assay is listed in Table 11 opposite the results for each assay.
(§3) Results presented in Table 10, “Results,” are the average of duplicate determinations, unless otherwise noted.
(§4) Reference compounds were tested concurrently at 5 concentrations as an integral part of each assay to ensure the validity of the results obtained.
Enzyme assays were performed under conditions described in Table 8, “Experimental Conditions.”. The commercial suppliers and catalog numbers of substrates employed in this study are given in Table 7, “Material Sources.” The name, commercial source, and catalog numbers of concurrent reference compounds (controls) employed in this study are given in Table 9, “Reference Compound Data.” The reaction catalyzed by each enzyme is listed in Table 8, “Experimental Conditions.”
Biochemical assay results are presented in Table 10, as the percent inhibition of specific binding or activity, and unless noted are the average of duplicate tubes tested at each concentration.

[3] = target: T1, histamine H3 receptor (Cavia porcellus, UniProt Q9JI35); assay: Histamine H3 Agonism/Antagonism, guinea pig ileum; format: cell-based; conditions: Peptide 30 μM, Thioperamide 0.3 μM; for Agonism, Ave.: R(α)-Methylhistamine 0.3 μM; for Agonism: relaxation within 5 minutes relative to 0.3 μM R-α-methylhistamine, R(α)-Methylhistamine 0.3 μM (0.1 printed in r13)
T1 construct: ileum obtained from Duncan Hartley derived male or female guinea pigs; from tissue; host or cells: guinea pig ileum segment, field-stimulated
T1 sequence (Q9JI35 whole entry): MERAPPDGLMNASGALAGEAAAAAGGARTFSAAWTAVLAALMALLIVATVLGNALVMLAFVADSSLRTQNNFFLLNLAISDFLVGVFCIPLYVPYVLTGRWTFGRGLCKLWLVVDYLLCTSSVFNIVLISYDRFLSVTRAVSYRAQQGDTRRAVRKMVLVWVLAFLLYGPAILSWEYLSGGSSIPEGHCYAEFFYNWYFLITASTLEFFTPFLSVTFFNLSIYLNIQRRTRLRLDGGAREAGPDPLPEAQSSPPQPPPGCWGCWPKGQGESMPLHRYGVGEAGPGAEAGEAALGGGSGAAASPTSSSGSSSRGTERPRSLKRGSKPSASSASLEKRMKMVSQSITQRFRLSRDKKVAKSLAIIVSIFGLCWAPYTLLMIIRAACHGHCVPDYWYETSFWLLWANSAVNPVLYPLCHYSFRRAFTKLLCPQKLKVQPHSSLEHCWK
Description: A segment of ileum obtained from Duncan Hartley derived male or female guinea pigs weighing 325±25 gms and sacrificed by CO2 overexposure were used. The tissue was placed under 0.5 g tension in a 10 ml bath containing Kreb's solution pH 7.4 and pyrilamine (0.3 μM) at 32° C. and subjected to field stimulation (70% of maximum voltage, 0.1 Hz, 0.5 millisecond). Test substance (30 μM)-induced reduction of isometrically recorded contractions 50 percent or more (≧50%) within 5 minutes, relative to control 0.3 μM R-α-methylhistamine response, indicated possible histamine H3 receptor agonist activity. At a test substance concentration where no significant agonist activity was seen, ability to inhibit R-α-methylhistamine-induced response by 50 percent or more (≧50%) indicated histamine H3 receptor antagonist activity. Each concentration was tested on two separate preparations.

[4] = tested on: Adjuvant Induced Arthritis; assay: Adjuvant Induced Arthritis Model; format: in vivo; conditions: rat, 20 mg per KG body weight orally once per day for 14 days, Day 14
Description: Adjuvant Induced Arthritis Model: Male Sprague-Dawley rats (160-180 g) were sensitized by injecting Fruend's Complete Adjuvant (0.5% suspension of killed mycobacterium tuberculosis (H37RA, Difco in mineral oil)). 0.05 ml was administered intradermally at a plantar site on the right hind leg of each rat. The test materials were given orally (by gavage) in 0.5% methylcelluose, at a dose level of 20 milligrams per kilo body weight, and given once per day for 14 days. The administration was started the day after sensitization. The left hind paw was measured just before sensitization and on Day 14, and the plantar edema inhibitory rate and the body weight gain rate were determined in comparison with the nonsensitized rat groups. The paw weights for each group in each test run were averaged. Activity was calculated as follows: [formula]
The Anti-inflammatory response is the difference in the mean foot volume. […] FIG. 4.

[5] = tested on: ovalbumin-induced bronchoconstriction; assay: Pulmonary, Histamine H3 (ovalbumin-induced bronchoconstriction); format: in vivo, guinea pig; conditions: Peptide PO 10 mg/kg, R-α-methylhistamine IV 30 mg/kg
Description: as §1
A group of Duncan Hartley derived male or female guinea pigs weighing 250±50 gms were anesthetized with pentobarbital sodium (50 mg/kg IP plus an additional 15 mg/kg IP if required) and succinylcholine chloride (2 mg/animal IP) was subsequently administered to prevent spontaneous respiration. Body temperature was maintained at 37° to 38° C. The trachea was cannulated and the guinea pig ventilated with a Harvard rodent respirator in a closed system. Tracheal pressure (TP) was recorded through a side-arm of the cannula connected to a P23ID Statham transducer. Respiratory rate set at 50 strokes/minute with a stroke volume (approximately 1 ml/100 g) sufficient to produce a baseline tracheal pressure of 6 cm H2O. Mean arterial pressure was monitored from a cannulated carotid artery, and heart rate was obtained from chest electrodes arranged for lead II. The jugular vein was cannulated for IV vehicle or drug administration in a volume of 1 ml/kg. Guinea pigs were sensitized with IP injections of ovalbumin 0.5 μg+Al(OH)3 1 mg (0.5 ml/animal) on days 1, and boosted with same dosage of ovalbumin and Al(OH)3 vaccine on day 8; and the animals were ready to be challenged between days 19 and 23 to get a submaximal ovalbumin (50 μg/kg IV)-induced bronchoconstriction, reflected as an increase in tracheal pressure (cm H2O). […]. Test substances were administered PO (10 mg/kg) at 60 minutes before ovalbumin (50 μg/kg IV) challenge in 3 guinea pigs. Tracheal pressure, blood pressure and heart rate were measured immediately before and after ovalbumin challenge.

[6] = tested on: DNBS-induced distal colitis; assay: Inflammation, Inflammatory Bowel Disease (DNBS distal colitis); format: in vivo, rat; conditions: PO, Peptide 30 mg/kg × 7, Sulfasalazine 300 mg/kg × 7
Description: as §1
Groups of 3 Sprague-Dawley derived male rats weighing 150±20 gms and fasted for 24 hours were used. Distal colitis was induced by intra-colonic instillation of DNBS (2,4-dinitrobenzene sulfonic acid, 30 mg in 0.5 ml ethanol 30%) after which air (2 ml) was gently injected through the cannula to ensure that the solution remains in the colon. Test substance was administered PO (30 mg/kg) at 24 and 2 hours before DNBS instillation. Then, the animals received test compound every 24 hours for 5 consecutive days. The control group was given vehicle alone as compound dosing pattern. The animals were sacrificed 24 hours after the final dose of test compound administration and each colon was removed and weighed. Colon-to-body weight ratio was obtained from the percentage of the comparison between the animal colon weight and body weight on the 8th day. A 30 percent or more (±30%) reduction in colon-to-body weight ratio relative to the vehicle treated control group was considered significant.

[7] = target: T2, Histamine H3 (Rattus norvegicus, UniProt Q9QYN8); assay: Histamine H3 radioligand binding; conditions: historical value
T2 construct: rat brain; from tissue; host or cells: rat brain
T2 sequence (Q9QYN8 whole entry): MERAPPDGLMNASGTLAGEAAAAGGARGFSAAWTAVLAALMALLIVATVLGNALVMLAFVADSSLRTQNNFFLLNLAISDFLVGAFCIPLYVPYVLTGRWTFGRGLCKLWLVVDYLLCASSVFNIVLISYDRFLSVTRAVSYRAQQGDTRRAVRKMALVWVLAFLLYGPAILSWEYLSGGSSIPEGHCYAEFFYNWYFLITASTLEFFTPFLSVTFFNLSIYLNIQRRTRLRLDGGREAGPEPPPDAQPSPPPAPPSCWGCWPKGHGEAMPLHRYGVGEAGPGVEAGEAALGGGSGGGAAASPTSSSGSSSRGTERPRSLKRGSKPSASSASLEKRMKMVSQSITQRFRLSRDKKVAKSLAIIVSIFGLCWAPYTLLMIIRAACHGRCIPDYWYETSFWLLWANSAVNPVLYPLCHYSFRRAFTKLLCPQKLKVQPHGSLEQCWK
Description: as §2, §3, §4
Radioligand binding assays were performed under conditions described in Table 8, “Experimental Conditions.” Radioligands employed in this study are given in Table 8, and commercial sources and catalog numbers of the radioligands are provided in Table 7, “Material Sources.” Unlabeled, blocking ligands employed this study are listed in Table 8, “Experimenal Conditions,” along with the commercial sources and catalog number of the unlabeled ligand. The concurrent reference compound (control) employed in each assay is listed in Table 9, “Reference Compound Data,” along with the commercial supplier and catalog number of the compound. […]
Maximum total binding and nonspecific binding were determined each time each assay was run. […]
Where inhibition constants (Ki) are presented, the Ki values were calculated using the equation of Cheng and Prusoff (Cheng, Y., Prusoff, W. H., Biochem. Pharmacol. […], 1973) using the observed IC50 of the tested compound, the concentration of radioligand employed in the assay, and the historical values for the Kd of the ligand (obtained experimentally). Where presented, the Hill Coefficient (nH), defining the scope of the competitive binding curve, was calculated using GraphPad Prism. […] Where IC50, Ki, and/or Hill Slope data is presented without Standard Error of the Mean (SEM), data are insufficient to be quantitative, and the values presented (Ki, IC50, nH) should be interpreted with caution. […]

[8] = tested on: Sarcoma 180 tumor; assay: Anti-Cancer Activity Against Mouse Tumor Sarcoma 180; format: in vivo; conditions: 10 mg/kg
Description: This model has been used extensively as indicative of neovascularization in mammals inasmuch as the tumor so implanted is quickly vascularizing.
Experimental Design: All mice were weighed at test initiation and test termination. The animals were divided into three groups. The Sarcoma 180 tumor was made up from a passage mouse to furnish […] per 0.1 mL inoculum. The cells were injected into the left leg hamstring muscle mass. The was delivered to the mice by I.P. injections, or gavage on days 1-5.
At the termination of the experiments, the mice were weighed and the left rear leg was amputated at the thigh. The skin was removed from the leg to expose the site at which the tumor was located. […].

[9] = tested on: oxazolone-induced ear swelling; assay: Immune Suppression, Cellular (oxazolone ear thickness); format: in vivo, mouse; conditions: IP, Peptide 100 mg/kg × 5, Cyclophosphamide 30 mg/kg × 5
Description: as §1
Groups of 5 ICR derived male mice weighing 22±1 gms were used. The preshaved abdominal surface was sensitized by application of oxazolone 0.1 ml of 5% solution. […] After additional four days, the animals were challenged by secondary application of oxazolone (0.025 ml of 5% solution) to the right ear. After a further 24 hours, each mouse was sacrificed and ear thickness measured with a Dyer Model micrometer gauge. A 30 percent or more (≧30%) decrease relative to the vehicle control group was considered significant and indicated possible immunosuppressant activity.

Compound: Cc1nnc2n1-c1sc(CCC(=O)N3CCOCC3)cc1C(c1ccccc1Cl)=NC2 [WEB-2086, reference compound]
- % Protection ([1]; PO one hour before PAF-acether 100 μg/kg IV): 60%
- No. of Survival ([1]; of 5 mice, one hour after PAF-acether 100 μg/kg IV, PO one hour before): 3

Compound: CC1CNCCN1S(=O)(=O)c1cccc2cnccc12 (stereo not drawn) [Peptide H-7, reference compound]
- IC50 [2]: 35000 nM

Compound: S=C(NC1CCCCC1)N1CCC(c2cnc[nH]2)CC1 [Thioperamide]
- Agonism, Ave. ([3]; average of two preparations): 0%
- Antagonism, Ave. ([3]; average of two preparations): 93%
- Antagonism ([3]; individual preparation, reduction of 0.3 μM R(α)-methylhistamine-induced relaxation): 90% and 96%
- Agonism ([3]; individual preparation): 0%

Compound: CCCCC1C(=O)N(c2ccccc2)N(c2ccccc2)C1=O [Phenylbutazone]
- anti-inflammatory response (percent inhibition) [4]: 112.2%

Compound: C[C@@H](N)Cc1c[nH]cn1 [R (α)-Methylhistamine, R-α-Methyl histamine, reference compound]
- Agonism, Ave. ([3]; average of two preparations): 100%
- Agonism ([3]; individual preparation): 100%
- Inc. of TP X ± SEM ([5]; group mean, N=3): 11.3 ± 7.2 cm H2O
- Inc. of TP Ind. ([5]; individual guinea pig, tracheal pressure after ovalbumin 50 μg/kg IV): 8.5 cm H2O and 25.0 cm H2O and 0.5 cm H2O
- % INH. ([5]; inhibition of induced bronchoconstriction relative to vehicle): 61.6%

Compound: O=C(O)c1cc(/N=N/c2ccc(S(=O)(=O)Nc3ccccn3)cc2)ccc1O [Sulfasalazine]
- Ratio Net ([6]; group mean minus blank-control): 0.181%
- Ratio Ind., X (group mean) ([6]; group mean): 0.551%
- Ratio Ind. (colon-to-body weight ratio) ([6]; individual rat, Colon (g)/8th B.W. × 100%): 0.496% and 0.508% and 0.650%
- % INH. ([6]; reduction in colon-to-body weight ratio relative to vehicle control): 49%

Compound: C[C@]12CCC(=O)C=C1CC[C@@H]1[C@@H]2[C@@H](O)C[C@@]2(C)[C@H]1CC[C@]2(O)C(=O)CO [hydrocortisone]
- anti-inflammatory response (percent inhibition) [4]: 132.6%

Compound: CNCCc1cnc[nH]1 [NAMH]
- IC50 ([7]; read-out: ^1IC, (IC50 of reference compound)): 2.9 nM
- Ki ([7]; read-out: ^1K1 (Ki of reference ligand)): 0.75 nM

Compound: LEU-PRO-PRO-SER-ARG [synthetic peptide (crude 60%)]
- % tumor inhibition ([8]; I.P. injections or gavage on days 1-5, 6 mice): 58.6%
- Mean tumor wt. gain, gm ([8]; net tumor weight, I.P. injections or gavage on days 1-5, 6 mice): 1.45 gm

Compound: O=P1(N(CCCl)CCCl)NCCCO1 (stereo not drawn) [Cyclophosphamide, Cyclophosphamide Monohydrate]
- % INH. ([9]; decrease of net ear thickness relative to vehicle control): 51%
- Thickness Net, X (group mean) ([9]; group mean): 13.4 × 0.1 mm
- Thickness Net ([9]; individual mouse, R. Ear minus L. Ear, Monohydrate): 16 × 0.1 mm and 10 × 0.1 mm and 14 × 0.1 mm and 7 × 0.1 mm and 20 × 0.1 mm
- Thickness R. Ear ([9]; individual mouse, challenged right ear, 24 hours after oxazolone challenge, Monohydrate): 38 × 0.1 mm and 26 × 0.1 mm and 32 × 0.1 mm and 23 × 0.1 mm and 40 × 0.1 mm
- Thickness L. Ear ([9]; individual mouse, left ear, Monohydrate): 22 × 0.1 mm and 16 × 0.1 mm (2×) and 18 × 0.1 mm and 20 × 0.1 mm
